Source: ChEMBL document CHEMBL5512655, “Discovery of indolylacryloyl-derived oxacins as novel potential broad-spectrum antibacterial candidates” (Eur J Med Chem, 2024)
Values after ≈ are worked out from the molar mass of the structure shown. Active and inactive are the calls of the source. The calls are words filed in the database; no cut-off is given here.

What was measured:
Staphylococcus aureus [1] = assay: Antibacterial activity against methicillin-resistant Staphylococcus aureus N315 assessed as inhibition of bacterial growth measured after 24 hrs incubation; type: functional
Staphylococcus aureus [2] = assay: Antibacterial activity against Staphylococcus aureus assessed as inhibition of bacterial growth measured after 24 hrs incubation; type: functional
Staphylococcus aureus [3] = assay: Antibacterial activity against Staphylococcus aureus ATCC 25923 assessed as inhibition of bacterial growth measured after 24 hrs incubation; type: functional
Staphylococcus aureus [4] = assay: Antibacterial activity against Staphylococcus aureus ATCC 29213 assessed as inhibition of bacterial growth measured after 24 hrs incubation; type: functional
Enterococcus faecalis = assay: Antibacterial activity against Enterococcus faecalis assessed as inhibition of bacterial growth measured after 24 hrs incubation; type: functional
Klebsiella pneumoniae = assay: Antibacterial activity against Klebsiella pneumonia assessed as inhibition of bacterial growth measured after 24 hrs incubation; type: functional
Escherichia coli [5] = assay: Antibacterial activity against Escherichia coli assessed as inhibition of bacterial growth measured after 24 hrs incubation; type: functional
Escherichia coli [6] = assay: Antibacterial activity against Escherichia coli ATCC 25922 assessed as inhibition of bacterial growth measured after 24 hrs incubation; type: functional
Pseudomonas aeruginosa [7] = assay: Antibacterial activity against Pseudomonas aeruginosa assessed as inhibition of bacterial growth measured after 24 hrs incubation; type: functional
Pseudomonas aeruginosa [8] = assay: Antibacterial activity against Pseudomonas aeruginosa ATCC 27853 assessed as inhibition of bacterial growth measured after 24 hrs incubation; type: functional
Acinetobacter baumannii = assay: Antibacterial activity against Acinetobacter baumannii assessed as inhibition of bacterial growth measured after 24 hrs incubation; type: functional
[9] = Hemolytic activity in human red blood cells assessed as hemolysis rate at 64 ug/ml relative to control; type: toxicity, cell-based, Erythrocyte; settings: red blood cells (erythrocytes), at 64 µg/mL, read-out: Activity
[10] = Hemolytic activity in human red blood cells assessed as hemolysis rate at 512 ug/ml relative to control; type: toxicity, cell-based, Erythrocyte; settings: red blood cells (erythrocytes), at 512 µg/mL, read-out: Activity
Staphylococcus aureus [11] = assay: Antibacterial activity against methicillin-resistant Staphylococcus aureus N315 assessed as resistance development measured after 18 generations; type: functional, organism-based
Escherichia coli [12] = assay: Antibacterial activity against Escherichia coli assessed as resistance development measured after 18 generations; type: functional, organism-based
Staphylococcus aureus [13] = assay: Antibacterial activity against methicillin-resistant Staphylococcus aureus N315 assessed as resistance development by measuring compound concentration required to inhibit measured after 18 generations; type: functional
Staphylococcus aureus [14] = assay: Antibacterial activity against methicillin-resistant Staphylococcus aureus N315 assessed as resistance development measured after 10 generations; type: functional, organism-based
Escherichia coli [15] = assay: Antibacterial activity against Escherichia coli assessed as resistance development measured after 11 generations; type: functional, organism-based
Escherichia coli [16] = assay: Antibacterial activity against Escherichia coli assessed as resistance development by measuring compound concentration required to inhibit measured after 18 generations; type: functional
Staphylococcus aureus [17] = assay: Antibacterial activity against methicillin-resistant Staphylococcus aureus N315 assessed as reduction in bacterial burden at 2 to 4 times of MIC measured within 5 hrs by time-dependent kinetics assay; type: functional, organism-based
Escherichia coli [18] = assay: Antibacterial activity against Escherichia coli assessed as reduction in bacterial burden at 2 to 4 times of MIC measured within 5 hrs by time-dependent kinetics assay; type: functional, organism-based
Staphylococcus aureus [19] = assay: Antibacterial activity against methicillin-resistant Staphylococcus aureus N315 assessed as reduction in bacterial burden at 2 to 4 times of MIC measured upto 7 hrs by time-dependent kinetics assay; type: functional, organism-based
Escherichia coli [20] = assay: Antibacterial activity against Escherichia coli assessed as reduction in bacterial burden at 2 to 4 times of MIC measured upto 7 hrs by time-dependent kinetics assay; type: functional, organism-based
Staphylococcus aureus [21] = assay: Anti-biofilm effect in methicillin-resistant Staphylococcus aureus N315 assessed as biofilm destruction by measuring eradication rate at MIC; type: functional
Escherichia coli [22] = assay: Anti-biofilm effect in Escherichia coli assessed as biofilm destruction by measuring eradication rate at MIC; type: functional
Staphylococcus aureus [23] = assay: Anti-biofilm effect in methicillin-resistant Staphylococcus aureus N315 assessed as biofilm destruction rate at 6 times of MIC; type: functional
Escherichia coli [24] = assay: Anti-biofilm effect in Escherichia coli assessed as biofilm destruction rate at 6 times of MIC; type: functional
Staphylococcus aureus [25] = assay: Anti-biofilm effect in methicillin-resistant Staphylococcus aureus N315 assessed as inhibition of biofilm formation by measuring reduction in exo-polysaccharide content at 6 times of MIC relative to control; type: functional
Escherichia coli [26] = assay: Anti-biofilm effect in Escherichia coli assessed as inhibition of biofilm formation by measuring reduction in exo-polysaccharide content at 6 times of MIC relative to control; type: functional
Cell membrane [27] = assay: Induction of cytoplasmic membrane integrity loss in methicillin-resistant Staphylococcus aureus N315 assessed as increase in fluorescence intensity at MIC by Propidium iodide method (reference value: 554); type: cell membranes
Cell membrane [28] = assay: Induction of cell membrane damage in methicillin-resistant Staphylococcus aureus N315 assessed as increase in density of red fluorescence at 4 times of MIC by Calcein-AM/PI dual staining based fluorescence microscopy; type: cell membranes
Cell membrane [29] = assay: Induction of cell membrane damage in Escherichia coli assessed as increase in density of red fluorescence at 4 times of MIC by Calcein-AM/PI dual staining based fluorescence microscopy; type: cell membranes
Escherichia coli [30] = assay: Induction of ROS production in Escherichia coli assessed as fluorescence intensity by DCFH-DA (dichlorofluorescin diacetate) probe based assay; type: functional, organism-based
Escherichia coli [31] = assay: Induction of ROS production in Escherichia coli assessed as fluorescence intensity at 2 times of MIC by DCFH-DA (dichlorofluorescin diacetate) probe based assay; type: functional
Staphylococcus aureus [32] = assay: Induction of lipid peroxidation in methicillin-resistant Staphylococcus aureus N315 assessed as malondialdehyde (MDA) level production; type: functional, organism-based
Escherichia coli [33] = assay: Induction of lipid peroxidation in Escherichia coli assessed as malondialdehyde (MDA) level production; type: functional, organism-based
Staphylococcus aureus [34] = assay: Induction of lipid peroxidation in methicillin-resistant Staphylococcus aureus N315 assessed as malondialdehyde (MDA) level production at 4 time of MIC; type: functional, organism-based
Escherichia coli [35] = assay: Induction of lipid peroxidation in Escherichia coli assessed as malondialdehyde (MDA) level production at 4 time of MIC; type: functional, organism-based
Staphylococcus aureus [36] = assay: Reduction in metabolic activity in methicillin-resistant Staphylococcus aureus N315 by Alamar Blue assay; type: functional, organism-based
Escherichia coli [37] = assay: Reduction in metabolic activity in Escherichia coli by Alamar Blue assay; type: functional, organism-based
Staphylococcus aureus [38] = assay: Reduction in metabolic activity in methicillin-resistant Staphylococcus aureus N315 at 6 times of MIC by Alamar Blue assay relative to control; type: functional; set-up: scale not given: the % may be the effect or the level left
Escherichia coli [39] = assay: Reduction in metabolic activity in Escherichia coli at 6 times of MIC by Alamar Blue assay relative to control; type: functional; set-up: scale not given: the % may be the effect or the level left
Calf thymus DNA [40] = assay: Binding affinity to calf thymus DNA assessed as hypochromism by spectroscopic analysis; type: nucleic-acid assay; settings: Bos taurus
Calf thymus DNA [41] = assay: Binding affinity to calf thymus DNA by acridine orange staining based competitive binding assay; type: nucleic-acid assay; settings: Bos taurus
Calf thymus DNA [42] = assay: Binding affinity to calf thymus DNA assessed as DNA intercalation with drug by […] assay; type: nucleic-acid assay; settings: Bos taurus
Staphylococcus aureus [43] = assay: Induction of ROS production in methicillin-resistant Staphylococcus aureus N315 assessed as fluorescence intensity at 2 times of MIC by DCFH-DA (dichlorofluorescin diacetate) probe based assay

CCn1cc(C(=O)O)c(=O)c2cc(F)c(N3CCN(C(=O)/C(C#N)=C/c4cn(CCO)c5ccccc45)CC3)cc21
MIC (Staphylococcus aureus [1]): 0.25 µg/mL (≈ 0.448 µM)
MIC (Staphylococcus aureus [2]): 0.25 µg/mL (≈ 0.448 µM)
MIC (Staphylococcus aureus [3]): 0.25 µg/mL (≈ 0.448 µM)
MIC (Staphylococcus aureus [4]): 0.25 µg/mL (≈ 0.448 µM)
MIC (Enterococcus faecalis): 0.25 µg/mL (≈ 0.448 µM)
MIC (Klebsiella pneumoniae): 0.25 µg/mL (≈ 0.448 µM)
MIC (Escherichia coli [5]): 0.25 µg/mL (≈ 0.448 µM)
MIC (Escherichia coli [6]): 0.5 µg/mL (≈ 0.897 µM)
MIC (Pseudomonas aeruginosa [7]): 1 µg/mL (≈ 1.79 µM)
MIC (Pseudomonas aeruginosa [8]): 0.5 µg/mL (≈ 0.897 µM)
MIC (Acinetobacter baumannii): 0.5 µg/mL (≈ 0.897 µM)
hemolysis at 64 ug/ml [9]: < 1.8%
hemolysis at 512 ug/ml [10]: < 1.8%
Activity (Staphylococcus aureus [11]): Active
Activity (Escherichia coli [12]): Active
MIC (Staphylococcus aureus [13]): 64 µg/mL (≈ 115 µM)
Activity (Staphylococcus aureus [14]): inactive
Activity (Escherichia coli [15]): inactive
MIC (Escherichia coli [16]): 32 µg/mL (≈ 57.4 µM)
Activity (Staphylococcus aureus [17]): Active
Activity (Escherichia coli [18]): Active
Activity (Staphylococcus aureus [19]): Active
Activity (Escherichia coli [20]): Active
inhibition (INH) (Staphylococcus aureus [21]): 22.1%
inhibition (INH) (Escherichia coli [22]): 40.3%
inhibition (INH) (Staphylococcus aureus [23]): >60%
inhibition (INH) (Escherichia coli [24]): >60%
inhibition (INH) (Staphylococcus aureus [25]): <50%
inhibition (INH) (Escherichia coli [26]): <50%
Flu intensity (Cell membrane [27]): 1250
Activity (Cell membrane [28]): Active
Activity (Cell membrane [29]): Active
Activity (Escherichia coli [30]): Dose-Dependent Effect
Activity (Escherichia coli [31]): >50%
Activity (Staphylococcus aureus [32]): Dose-Dependent Effect
Activity (Escherichia coli [33]): Dose-Dependent Effect
Activity (Staphylococcus aureus [34]): Active
Activity (Escherichia coli [35]): Active
Activity (Staphylococcus aureus [36]): Dose-Dependent Effect
Activity (Escherichia coli [37]): Dose-Dependent Effect
Activity (Staphylococcus aureus [38]): >50%
Activity (Escherichia coli [39]): >50%
Activity (Calf thymus DNA [40]): Active
Activity (Calf thymus DNA [41]): Active
Activity (Calf thymus DNA [42]): Active
Activity (Staphylococcus aureus [43]): >50%
